From PubChem BioAssay (NCI)
Where “and” joins values, the source holds several entries; their conditions need not be identical. Identical values can stand only once.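 All cell lines were grown in 96-well plates and treated with compound for 48 hours. At the GI50, growth is halved. Definition used: TGI = concentration required for complete inhibition of growth.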

What was measured:
Test in all cases: NCI-60 cell line screen, 48 h
MDA-MB-231 breast = system: MDA-MB-231 breast
SK-MEL-5 melanoma = system: SK-MEL-5 melanoma
NCI/ADR-RES ovarian = system: NCI/ADR-RES ovarian
SNB-75 CNS = system: SNB-75 CNS
HCT-116 colon = system: HCT-116 colon
UACC-257 melanoma = system: UACC-257 melanoma
NCI-H23 lung = system: NCI-H23 lung
MCF7 breast = system: MCF7 breast
OVCAR-3 ovarian = system: OVCAR-3 ovarian
HCC-2998 colon = system: HCC-2998 colon

SMILES	TGI (MDA-MB-231 breast) [µM]	TGI (SK-MEL-5 melanoma)	TGI (NCI/ADR-RES ovarian)	TGI (SNB-75 CNS)	TGI (HCT-116 colon)	TGI (UACC-257 melanoma)	TGI (NCI-H23 lung)	TGI (MCF7 breast)	TGI (OVCAR-3 ovarian)	TGI (HCC-2998 colon)	GI50 (OVCAR-3 ovarian) [µM]	GI50 (MDA-MB-231 breast) [µM]	GI50 (NCI/ADR-RES ovarian) [µM]	GI50 (MCF7 breast) [µM]	GI50 (HCC-2998 colon) [µM]	GI50 (SK-MEL-5 melanoma) [µM]	GI50 (SNB-75 CNS) [µM]	GI50 (HCT-116 colon) [µM]	GI50 (UACC-257 melanoma) [µM]	GI50 (NCI-H23 lung) [µM]
CCCCCCNC(=O)c1cnc(Cl)cn1	32.4	30.4 µM	34.2 µM	49.1 µM	30.7 µM	37.4 µM	23.5 µM	23.6 µM	–	–	–	–	–	–	–	–	–	–	–	–
NC(N)=N/N=C/c1c(-c2ccccc2)nc2n1ccc1nc(-c3ccccc3)c(/C=N/N=C(N)N)n12	> 100	> 100 µM	> 100 µM	> 100 µM	> 100 µM	81.8 µM	> 100 µM	> 100 µM	> 100 µM	–	–	–	–	–	–	–	–	–	–	–
CN(C)CCCNc1ccc2ncn3c4ccccc4c(=O)c1c23	–	–	–	92.2 µM	15.1 µM	61.3 µM	29 µM	–	56.2 µM	–	–	–	–	–	–	–	–	–	–	–
CC12CCC(C(=O)OC1=O)C(C)(C)O2 (stereo not given)	–	> 100 µM	> 100 µM	> 100 µM	> 100 µM	> 100 µM	> 100 µM	> 100 µM	> 100 µM	> 100 µM	–	–	–	–	–	–	–	–	–	–
O=NC1C(Cl)C2CC1C1C(Br)C(Br)CC21 (stereo not given)	> 100	> 100 µM	> 100 µM	> 100 µM	> 100 µM	–	> 100 µM	> 100 µM	> 100 µM	–	–	–	–	–	–	–	–	–	–	–
CC(=O)C(O)N1C(=O)C=CC1=O (stereo not given)	–	–	–	–	–	–	–	> 25 µM and 32900 µM	–	–	11600	13400	12000	14200	–	–	–	–	–	–
C[C@@H]1CC[C@H]2C(COCCOCC3=C(C(F)(F)F)O[C@@H]4O[C@@]5(C)CC[C@H]6[C@H](C)CC[C@@H]3[C@@]46OO5)=C(C(F)(F)F)O[C@@H]3O[C@@]4(C)CC[C@@H]1[C@]32OO4	> 15.8	> 100 µM	> 100 µM	> 100 µM	> 100 µM	> 100 µM	> 100 µM	> 100 µM	> 8.24 µM	> 100 µM	0.134	1.97	5.57	0.0322	> 11.9	0.176	> 4.64	0.0243	0.407	0.535
CN(C)c1ccc(/C=N\NC(=O)CSCC(=O)N/N=C/c2ccc(N(C)C)cc2)cc1	58.6	> 100 µM	> 100 µM	> 100 µM	> 100 µM	> 100 µM	> 100 µM	> 100 µM	> 100 µM	–	–	–	–	–	–	–	–	–	–	–
COc1ccc([C@@H]2ON(C)[C@H]3CN(C)C(=O)[C@@H]23)cc1	> 100	> 100 µM	> 100 µM	> 100 µM	> 100 µM	> 100 µM	> 100 µM	> 100 µM	> 100 µM	> 100 µM	–	–	–	–	–	–	–	–	–	–
Cc1ccccc1N=Nc1ccc(N=Nc2c(O)ccc3ccccc23)c(C)c1	> 100	> 100 µM	> 100 µM	> 100 µM	> 100 µM	> 100 µM	> 100 µM	–	> 100 µM	–	–	–	–	–	–	–	–	–	–	–
C/C=C/[P+](c1ccccc1)(c1ccccc1)c1ccccc1	14.4	9.54 µM	> 100 µM	19.9 µM	20.6 µM	11.2 µM	14.3 µM	> 45.5 µM	7.94 µM	3.82 µM	–	–	–	–	–	–	–	–	–	–
CC1C(O)C2(Oc3cc4c(c5c3[C@@H](CC5O)[C@H]2C)CCC2Cc3nc5c(nc3C[C@@]42C)CC2CCC3C4=C[C@H]6O[C@@]7(O[C@@](C)(CO)C[C@@H]7O)C(C)[C@@]6(O)[C@]4(C)[C@@H](O)CC3[C@]2(C)C5)OC1(C)C (stereo not given in full)	–	> 3.67 µM	> 3.67 µM	0.0842 µM	1.02 µM	> 3.67 µM	0.654 µM	> 3.67 µM	0.406 µM	> 3.67 µM	–	–	–	–	–	–	–	–	–	–
COc1ccc(N2C(=O)C3c4[nH]c5c(C)cccc5c4C4CCC(C(C)(C)C)CC4C3C2=O)cc1 (stereo not given)	> 10	> 10 µM	> 10 µM	> 10 µM	> 10 µM	–	> 10 µM	> 10 µM	> 10 µM	7.61 µM	–	–	–	–	–	–	–	–	–	–
CC1=C2C(=O)c3ccccc3C(=O)[C@H]2[C@H]2CCO[C@H]2O1	51.7	30.8 µM	67 µM	43 µM	79 µM	36.5 µM	45.6 µM	23.6 µM	36.5 µM	48.1 µM	–	–	–	–	–	–	–	–	–	–
Cc1ccc(S(=O)(=O)NCCSCCNS(=O)(=O)c2ccc(C)cc2)cc1	> 100	> 100 µM	> 100 µM	> 100 µM	> 100 µM	> 100 µM	> 100 µM	> 100 µM	> 100 µM	> 100 µM	–	–	–	–	–	–	–	–	–	–
O=c1ccc2cc(O)c(O)cc2o1	> 100	> 100 µM	> 100 µM	> 100 µM	> 100 µM	> 100 µM	> 100 µM	> 100 µM	> 100 µM	> 100 µM	–	–	–	–	–	–	–	–	–	–
COc1ccc(-c2c3c(nc4nc(SCCc5ccccc5)nc(N)c24)CCCC3)cc1OC	> 100	> 100 µM	> 100 µM	> 100 µM	> 100 µM	> 100 µM	> 100 µM	> 100 µM	> 100 µM	–	–	–	–	–	–	–	–	–	–	–
Cc1c2cc[n+](CCN3CCCCC3)cc2c(C)c2c1[nH]c1ccc(O)cc12	34.7	31.2 µM and 11.1 µM	72.2 µM and > 100 µM	5.4 µM and 18.7 µM	24.1 µM and 26.1 µM	29 µM and > 74 µM	53.1 µM and 27.7 µM	39.7 µM and 11.5 µM	40.2 µM and > 50.3 µM	53 µM and 37.4 µM	11.1	–	27.4	–	14.3	–	2.7	4.75	28.7	2.6
CCCCCCCSc1nc2c(C(=O)OCC)ncn2c2ccccc12	–	–	–	–	> 100 µM	> 100 µM	> 100 µM	–	> 100 µM	> 100 µM	–	–	–	–	–	–	–	–	–	–
CN(C)CCNc1nc(-c2ccc3ccccc3c2)nc2nc[nH]c12	26.5	25 µM	22.9 µM	4.44 µM	24.6 µM	19.5 µM	23.9 µM	20.6 µM	21 µM	10.6 µM	–	–	–	–	–	–	–	–	–	–
CN1CCCCC1CCN1CCCCC1 (stereo not given)	> 100	> 100 µM	> 100 µM	> 100 µM	> 100 µM	> 100 µM	> 100 µM	> 100 µM	> 100 µM	> 100 µM	–	–	–	–	–	–	–	–	–	–
